What was measured:
Assay type in all cases: cell-based
[1] = test system: phospho-c-Jun in lung cancer-associated fibroblasts (CAF); assay: TGF-β-induced c-Jun phosphorylation (capillary western); conditions: Homo sapiens, Fibroblast, 10 ng/mL TGF-β for 2 hours, western blot, read-out: EC50 on phospho-c-Jun levels
Method: (§1) Normal human lung fibroblasts (NHLF, black circle) or lung cancer-associated fibroblasts (CAF, black square) were treated with 10 ng/mL TGF-β after 1 hour pre-incubation with a range of Compound 1 concentrations, and cells were lysed 2 hours later. Phospho-c-Jun levels were evaluated by western blot. Abbreviations: CAF, cancer-associated fibroblasts; NHLF, normal lung human fibroblasts; TGF-β, transforming growth factor beta.
(§2) Normal human lung fibroblasts (NHLF) and lung cancer-associated fibroblasts (CAF) were maintained in their respective vendor recommended media. For the purposes of comparing the two cell lines, NHLF and lung CAF were both adapted to DMEM+10% fetal bovine serum (FBS) and to RPMI+10% FBS prior to use in the activation assay. Cells were seeded (150,000 NHLF and lung CAF cells) in 12 well plates and allowed to adhere overnight at 37° C., 5% CO2. The next day, cells were pre-treated for […] at 37° C. with DMSO or Compound 1 at 30 μM, 7.5 μM, 1.875 μM, 0.469 μM, 0.117 μM, 0.029 μM, and 0.007 μM. […]
(§3) The levels of phospho-c-Jun in NHLF and non-small cell lung CAF in response to TGF-β in the presence of DMSO or varying concentrations of Compound 1 were summarized in FIG. 7. […] Phospho-c-Jun levels were determined by western blot analysis and were normalized to DMSO treated samples.

[2] = test system: phospho-c-Jun in normal human lung fibroblasts (NHLF); assay: as above; conditions: Fibroblast, 10 ng/mL TGF-β for 2 hours, western blot, read-out: EC50 on phospho-c-Jun levels
Method: as §1, §2, §3

[3] = test system: CCL2 secretion by primary human macrophages; assay: CCL2 secretion in primary human macrophages (ELISA); conditions: normalized to DMSO
Method: FIG. 11 illustrates the effect of Compound 1 Treatment on CCL2 Secretion in Primary Human Macrophages. Primary human monocytes were differentiated into macrophages and treated with varying doses of DMSO or Compound 1. The CCL2 levels were measured in the cell supernatant by ELISA 24 hours after drug treatment. The CCL2 secretion levels were normalized to the equivalent DMSO concentration. Data are plotted as the mean and standard deviation of 3 donors and representative of 2 independent experiments. *P<0.05; ** P<0.01, ***P<0.001; ****P<0.0001 by student's t-test. Abbreviations: CCL2, C—C motif chemokine ligand 2; DMSO, dimethyl sulfoxide; ELISA, enzyme-linked immunosorbent assay.
Peripheral blood mononuclear cells (PBMCs) were isolated from human blood using aseptic conditions. CD14+ monocytes were enriched from PBMC using Miltenyi Biotech kit (using CD14 microbeads). Fresh CD14+ monocytes were differentiated to macrophages using complete RPMI1640 medium with M-CSF recombinant human protein at the final concentration of 50 ng/mL. At Day 3-4, media containing M-CSF was added on monocytes/macrophages and incubated for 6-7 days in 5% CO2 incubator at 37° C. 10 mL 10 mM EDTA or Detachin was added to the culture dish containing macrophages, and let sit for 20-30 minutes, or until cells dissociate from the dish at room temperature. […]

SMILES: C[C@@H]1CC[C@@H](Nc2nc(NC(C)(C)C)ncc2C(N)=O)C[C@H]1O [Compound 1, 2-(tert-butylamino)-4-((1R,3R,4R)-3-hydroxy-4-methylcyclohexylamino)-pyrimidine-5-carboxamide]
- EC50 [1]: 330 nM
- EC50 [2]: 350 nM
- reduction in CCL2 ([3]; 7.4 μM Compound 1, supernatant): 36%
- reduction in CCL2 ([3]; 20 μM Compound 1, supernatant): 43%
